Laboratory results reported in patent US9242933B2 (AbbVie Deutschland GmbH & Co. KG, priority 2007, dated 2016).

Molecular target: T1, human mGlu2 receptor (Homo sapiens, UniProt Q14416)
T1 construct: expressed in transfected cells; host or cells: HEK293
Test: FLIPR intracellular Ca2+ assay, potentiation of glutamate response in HEK293 clone expressing mGlu2 receptor, rGLAST and Galpha16
Assay type: cell-based
Conditions: 1 μM glutamate added ten minutes after test compound, HEK293 cells with human mGlu2, rGLAST, Galpha16, read-out: EC50 values of potentiation effect to glutamate
How it was run: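 HEK293 cells stably expressing human mGlu2, rat GLAST and Gα16 were loaded with 2 µM Fluo-4 AM and intracellular Ca2+ read by FLIPR. Compound added alone (agonism), then with submaximal glutamate (e.g. 1 µM; potentiation). Background-subtracted peaks normalized to 100 µM glutamate response; EC50 from four-parameter fit.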

T1 sequence (Q14416 19-872): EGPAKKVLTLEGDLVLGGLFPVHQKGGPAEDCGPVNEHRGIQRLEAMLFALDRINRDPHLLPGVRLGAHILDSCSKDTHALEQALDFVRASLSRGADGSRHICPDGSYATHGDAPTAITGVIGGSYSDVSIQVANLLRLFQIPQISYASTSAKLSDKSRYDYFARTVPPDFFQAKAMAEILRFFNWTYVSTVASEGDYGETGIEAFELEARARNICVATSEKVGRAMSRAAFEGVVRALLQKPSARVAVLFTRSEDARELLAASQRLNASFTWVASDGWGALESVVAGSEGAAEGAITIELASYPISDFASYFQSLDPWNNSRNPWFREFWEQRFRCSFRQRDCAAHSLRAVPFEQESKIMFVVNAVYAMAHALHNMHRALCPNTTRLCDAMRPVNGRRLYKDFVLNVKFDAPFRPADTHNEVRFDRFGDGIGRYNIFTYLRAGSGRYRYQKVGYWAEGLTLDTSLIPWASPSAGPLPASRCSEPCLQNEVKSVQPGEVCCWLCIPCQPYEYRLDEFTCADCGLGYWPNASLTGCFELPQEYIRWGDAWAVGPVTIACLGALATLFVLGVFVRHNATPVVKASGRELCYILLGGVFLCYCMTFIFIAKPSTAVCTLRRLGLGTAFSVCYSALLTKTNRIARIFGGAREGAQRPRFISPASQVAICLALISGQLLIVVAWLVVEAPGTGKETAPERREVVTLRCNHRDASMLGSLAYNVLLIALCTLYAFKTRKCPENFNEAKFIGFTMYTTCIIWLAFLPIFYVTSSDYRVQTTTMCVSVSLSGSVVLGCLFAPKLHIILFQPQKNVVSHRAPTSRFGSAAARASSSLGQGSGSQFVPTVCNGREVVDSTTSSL

| Compound | EC50 |
| --- | --- |
| CCCC(=O)c1ccc(NCc2cnc(Oc3ccc(OC)cc3)s2)cc1 [Example 260, 1-(4-{[2-(4-Methoxy-phenoxy)-thiazol-5-ylmethyl]-amino}-phenyl)-butan-1-one] | 1 to 10 µM |
| FC(F)(F)c1ccc(-c2n[nH]cc2CNc2cccc(Cl)n2)cc1 [Example 349, (6-Chloro-pyridin-2-yl)-[3-(4-trifluoromethyl-phenyl)-1H-pyrazol-4-ylmethyl]-amine] | 1 to 10 µM |
| CCCC(=O)c1ccc(NCc2cccnc2-c2ccsc2)cc1 [Example 321, 1-{4-[(2-Thiophen-3-yl-pyridin-3-ylmethyl)-amino]-phenyl}-butan-1-one] | 1 to 10 µM |
| O=C1c2ccc(OCc3c[nH]nc3-c3ccccc3)cc2CN1CCC(F)(F)F [Example 543, 5-(3-Phenyl-1H-pyrazol-4-ylmethoxy)-2-(3,3,3-trifluoro-propyl)-2,3-dihydro-isoindol-1-one] | < 1 µM |
| CCCC(=O)c1ccc(NCc2c[nH]nc2-c2cccc(Cl)c2)cc1 [Example 509, 1-(4-{[3-(3-Chloro-phenyl)-1H-pyrazol-4-ylmethyl]-amino}-phenyl)-butan-1-one] | < 1 µM |
| 2-Propyl-6-{[3-(4-trifluoromethyl-phenyl)-1H-pyrazol-4-ylmethyl]-amino}-2,3-dihydro-isoquinolin-1-one [Example 584] | < 1 µM |
| CCCN1Cc2cc(OCc3c[nH]nc3-c3cccc(C(F)(F)F)c3)ccc2C1=O [Example 532, 2-Propyl-5-[3-(3-trifluoromethyl-phenyl)-1H-pyrazol-4-ylmethoxy]-2,3-dihydro-isoindol-1-one] | < 1 µM |
| CCCC(=O)c1ccc(OCc2n[nH]cc2-c2ccc(CC)cc2)cc1 [Example 521, 1-{4-[4-(4-Ethyl-phenyl)-1H-pyrazol-3-ylmethoxy]-phenyl}-butan-1-one] | < 1 µM |
| CN(C)S(=O)(=O)c1cccc(NCc2c[nH]nc2-c2ccc(Cl)cc2)c1 [Example 430, 3-{[3-(4-Chloro-phenyl)-1H-pyrazol-4-ylmethyl]-amino}-N,N-dimethyl-benzenesulfonamide] | 1 to 10 µM |
| CCCC(=O)c1ccc(NCc2cccnc2)cc1 [Example 16, 1-{4-[(Pyridin-3-ylmethyl)amino]phenyl}butan-1-one] | 1 to 10 µM |
| CC(C)(C)c1n[nH]cc1CN(c1cccc(OC2CCCC2)c1)S(=O)(=O)CC(F)(F)F [Example 458, 2,2,2-Trifluoro-ethanesulfonic acid (3-tert-butyl-1H-pyrazol-4-ylmethyl)-(3-cyclopentyloxy-phenyl)-amide] | 1 to 10 µM |
| O=C1c2ccc(OCc3c[nH]nc3-c3ccc(C(F)(F)F)cc3)cc2CN1CCC(F)(F)F [Example 542, 5-[3-(4-Trifluoromethyl-phenyl)-1H-pyrazol-4-ylmethoxy]-2-(3,3,3-trifluoro-propyl)-2,3-dihydro-isoindol-1-one] | < 1 µM |
| CCCCC(=O)c1ccc(OCc2c[nH]nc2-c2ccc(C(F)(F)F)cc2)cc1 [Example 490, 1-{4-[3-(4-Trifluoromethyl-phenyl)-1H-pyrazol-4-ylmethoxy]-phenyl}-pentan-1-one] | < 1 µM |
| O=C1c2ccc(OCc3c[nH]nc3-c3ccc(C(F)(F)F)cc3)cc2CN1CCCC(F)(F)F [Example 552, 2-(4,4,4-Trifluoro-butyl)-5-[3-(4-trifluoromethyl-phenyl)-1H-pyrazol-4-ylmethoxy]-2,3-dihydro-isoindol-1-one] | < 1 µM |
| CCCC(=O)c1ccc(NCc2ccc(COC(C)=O)o2)cc1 [Example 23, Acetic acid 5-[(4-butyrylphenylamino)methyl]furan-2-ylmethyl ester] | 1 to 10 µM |
| COc1ccccc1Oc1ccc(NCc2c[nH]nc2-c2ccc(C(F)(F)F)cc2)cc1 [Example 83, [4-(2-Methoxy-phenoxy)-phenyl]-[3-(4-trifluoromethylphenyl)-1H-pyrazol-4-ylmethyl]-amine] | < 1 µM |
| CCC(C)COc1cccc(N(Cc2c[nH]nc2-c2ccc(C(F)(F)F)cc2)S(=O)(=O)CC(F)(F)F)c1 (stereo not shown) [Example 457, 2,2,2-Trifluoro-ethanesulfonic acid [3-(2-methyl-butoxy)-phenyl]-[3-(4-trifluoromethyl-phenyl)-1H-pyrazol-4-ylmethyl]-amide] | 1 to 10 µM |
| CCCC(=O)c1ccc(OCc2c[nH]nc2-c2cccc(C(F)(F)F)c2)cc1 [Example 498, 1-{4-[3-(3-Trifluoromethyl-phenyl)-1H-pyrazol-4-ylmethoxy]-phenyl}-butan-1-one] | < 1 µM |
| O=C1c2ccc(OCc3c[nH]nc3-c3ccc(C(F)(F)F)cc3)cc2CN1CCBr [Example 564, 2-(2-Bromo-ethyl)-5-[3-(4-trifluoromethyl-phenyl)-1H-pyrazol-4-ylmethoxy]-2,3-dihydro-isoindol-1-one] | < 1 µM |
| CCCC(=O)c1ccc(NCc2n[nH]cc2-c2ccc(CC)cc2)cc1 [Example 516, 1-(4-{[4-(4-Ethyl-phenyl)-1H-pyrazol-3-ylmethyl]-amino}-phenyl)-butan-1-one] | < 1 µM |
| CC(=O)c1ccc(OCc2c[nH]nc2-c2ccc(C(F)(F)F)cc2)c(C)c1 [Example 488, 1-{3-Methyl-4-[3-(4-trifluoromethyl-phenyl)-1H-pyrazol-4-ylmethoxy]-phenyl}-ethanone] | 1 to 10 µM |
| CCCC(=O)c1ccc(NCc2c[nH]nc2-c2ccccc2)cc1 [Example 210, 1-{4-[(3-Phenyl-1H-pyrazol-4-ylmethyl)-amino]-phenyl}-butan-1-one] | < 1 µM |
| CCCCN1Cc2cc(OCc3c[nH]nc3-c3ccccc3)ccc2C1=O [Example 551, 2-Butyl-5-(3-phenyl-1H-pyrazol-4-ylmethoxy)-2,3-dihydro-isoindol-1-one] | < 1 µM |
| CCCC(=O)c1ccc(NCc2cnn(C)c2C)cc1 [Example 60, 1-{4-[(1,5-Dimethyl-1H-pyrazol-4-ylmethyl)amino]phenyl}butan-1-one] | 1 to 10 µM |
| CCC(C)Oc1cccc(NCc2c[nH]nc2-c2ccc(C(F)(F)F)cc2)c1 (stereo not shown) [Example 378, (3-sec-Butoxy-phenyl)-[3-(4-trifluoromethyl-phenyl)-1H-pyrazol-4-ylmethyl]-amine] | 1 to 10 µM |

Next, values leading:

| EC50 | Compound |
| --- | --- |
| < 1 µM | CCCC(=O)c1ccc(OCc2c[nH]nc2-c2ccc(F)cc2)cc1 [Example 495, 1-{4-[3-(4-Fluorophenyl)-1H-pyrazol-4-ylmethoxy]-phenyl}-butan-1-one] |
| < 1 µM | CCCN1Cc2cc(NCc3c[nH]nc3-c3ccccc3)ccc2C1=O [Example 581, 5-[(3-Phenyl-1H-pyrazol-4-ylmethyl)-amino]-2-propyl-2,3-dihydro-isoindol-1-one] |
| 1 to 10 µM | CCCC(=O)c1ccc(NCc2cnc(-c3ccccc3OC)s2)cc1 [Example 242, 1-(4-{[2-(2-Methoxy-phenyl)-thiazol-5-ylmethyl]-amino}-phenyl)-butan-1-one] |
| 1 to 10 µM | CCCC(=O)c1ccc(NCc2cn(C)cn2)cc1 [Example 228, 1-{4-[(1-Methyl-1H-imidazol-4-ylmethyl)-amino]-phenyl}-butan-1-one] |
| 1 to 10 µM | CCCC(=O)c1ccc(NCc2cn(-c3ccccc3)nc2-c2cccnc2)cc1 [Example 222, 1-{4-[(1-Phenyl-3-pyridin-3-yl-1H-pyrazol-4-ylmethyl)-amino]-phenyl}-butan-1-one] |
| < 1 µM | CCCCN1Cc2cc(OCc3c[nH]nc3-c3ccc(C(F)(F)F)cc3)ccc2C1=O [Example 544, 2-Butyl-5-[3-(4-trifluoromethyl-phenyl)-1H-pyrazol-4-ylmethoxy]-2,3-dihydro-isoindol-1-one] |
| 1 to 10 µM | CCCC(=O)c1ccc(NCc2ccnn2C)cc1 [Example 216, 1-{4-[(2-Methyl-2H-pyrazol-3-ylmethyl)-amino]-phenyl}-butan-1-one] |
| 1 to 10 µM | CN(C)S(=O)(=O)c1ccc(NCc2c[nH]nc2-c2ccc(C(F)(F)F)cc2)cc1 [Example 169, N,N-Dimethyl-4-{[3-(4-trifluoromethyl-phenyl)-1H-pyrazol-4-ylmethyl]-amino}-benzenesulfonamide] |
| < 1 µM | CCCC(=O)c1ccc(OCc2c[nH]nc2-c2ccccc2)cc1 [Example 499, 1-[4-(3-Phenyl-1H-pyrazol-4-ylmethoxy)-phenyl]-butan-1-one] |
| < 1 µM | O=C1c2ccc(OCc3c[nH]nc3-c3ccc(C(F)(F)F)cc3)cc2CN1CC(F)(F)F [Example 568, 2-(2,2,2-Trifluoro-ethyl)-5-[3-(4-trifluoromethyl-phenyl)-1H-pyrazol-4-ylmethoxy]-2,3-dihydro-isoindol-1-one] |
| 1 to 10 µM | CCCC(=O)c1cccc(NCc2cccnc2)c1 [Example 386, 1-{3-[(Pyridin-3-ylmethyl)-amino]-phenyl}-butan-1-one] |
| 1 to 10 µM | CCCC(=O)c1ccc(NCc2c[nH]nc2CCC)cc1 [Example 476, 1-{4-[(3-Propyl-1H-pyrazol-4-ylmethyl)-amino]-phenyl}-butan-1-one] |
| 1 to 10 µM | CCCC(=O)c1ccc(NCc2c[nH]nc2C)cc1 [Example 475, 1-{4-[(3-Methyl-1H-pyrazol-4-ylmethyl)-amino]-phenyl}-butan-1-one] |
| 1 to 10 µM | CC(=O)c1ccc(NCc2c[nH]nc2-c2ccc(C(F)(F)F)cc2)cc1 [Example 501, 1-(4-{[3-(4-Trifluoromethyl-phenyl)-1H-pyrazol-4-ylmethyl]-amino}-phenyl)-ethanone] |
| 1 to 10 µM | CCCOc1ncccc1CNc1ccc(C(=O)CCC)cc1 [Example 311, 1-{4-[(2-Propoxy-pyridin-3-ylmethyl)-amino]-phenyl}-butan-1-one] |
| 1 to 10 µM | CCCC(=O)c1ccc(NCc2ccc(OC)nc2OC)cc1 [Example 317, 1-{4-[(2,6-Dimethoxy-pyridin-3-ylmethyl)-amino]-phenyl}-butan-1-one] |
| 1 to 10 µM | CCCC(=O)c1ccc(NCc2ccco2)cc1 [Example 13, 1-{4-[(Furan-2-ylmethyl)amino]phenyl}butan-1-one] |
| 1 to 10 µM | CCCC(=O)c1ccc(NCc2csc(C(C)C)n2)cc1 [Example 268, 1-{4-[(2-Isopropyl-thiazol-4-ylmethyl)-amino]-phenyl}-butan-1-one] |
